Results as given in US20100204265A1 (priority 2009, published 2010).

Tested on: ET (Huh-lucubineo-ET) cell line harboring I389luc-ubi-neo/NS3-3′/ET HCV replicon
Assay: Replicon assay (HCV replicon, luciferase readout)
Assay type: cell-based
Settings: Hepatitis C virus
Protocol: A cell line, ET (Huh-lucubineo-ET) is used for screening of compounds for inhibiting HCV RNA dependent RNA polymerase. The ET cell line is stably transfected with RNA transcripts harboring a I389luc-ubi-neo/NS3-3′/ET; replicon with firefly luciferase-ubiquitin-neomycin phosphotransferase fusion protein and EMCV-IRES driven NS3-5B polyprotein containing the cell culture adaptive mutations (E1202G; T1280I; K1846T) (Krieger at al, 2001 and unpublished). The ET cells are grown in DMEM (Dulbeco's Modified Eagle's Medium), supplemented with 10% fetal calf serum, 2 mM Glutamine, Penicillin (100 IU/mL)/Streptomycin (100 μg/mL), 1× nonessential amino acids, and 250 μg/mL G418 (“Geneticin”). They are all available through Life Technologies (Bethesda, Md.). The cells are plated at 0.5−1.0×10^4 cells/well in the 96 well plates and incubated for 24 hrs before adding test compound. The compounds are added to the cells to achieve a final concentration of 0.1 nM to […] and a final DMSO (dimethylsulfoxide) concentration of 0.5%. Luciferase activity is measured 48-72 hours later by adding a lysis buffer and the substrate (Catalog number Glo-lysis buffer E2661 and Bright-Glo luciferase system E2620 Promega, Madison, Wis.). Cells should not be too confluent during the assay. Percent inhibition of replication data is plotted relative to no compound control. Under the same condition, cytotoxicity of the compounds are determined using cell proliferation reagent, WST-1 (Roche, Germany). The compounds showing antiviral activities, but no significant cytotoxicities are chosen to determine EC50 and TC50. For these determinations, a 10 point, 2-fold serial dilution for each compound was used, which spans a concentration range of 1000 fold. EC50 and similarly TC50 values were calculated by fitting % inhibition at each concentration to the following equation:
% inhibition=100%/[(EC50/[I])^b+1]
where b is Hill's coefficient.

Row | Compound | EC50
1 | COC(=O)[C@H](CCCCNC(=O)OC(C)(C)C)NC(=O)Cc1cn2cc(-c3ccoc3)cc(C(F)(F)F)c2n1 (stereo in doubt) [Compound 153, 6-tert-Butoxycarbonylamino-2-[2-(6-furan-3-yl-8-trifluoromethyl-imidazo[1,2-a]pyridin-2-yl)-acetylamino]-hexanoic acid methyl ester] | 13.9 µM
2 | COC(=O)[C@@H](NC(=O)Cc1cn2cc(-c3ccoc3)cc(C(F)(F)F)c2n1)C(C)(C)C (stereo in doubt) [Compound 294, 2-[2-(6-Furan-3-yl-8-trifluoromethyl-imidazo[1,2-a]pyridin-2-yl)-acetylamino]-3,3-dimethyl-butyric acid methyl ester] | > 50 µM
3 | NC(=O)[C@H](CO)NC(=O)Cc1cn2cc(-c3ccoc3)cc(C(F)(F)F)c2n1 (stereo in doubt) [Compound 298, 2-[2-(6-Furan-3-yl-8-trifluoromethyl-imidazo[1,2-a]pyridin-2-yl)-acetylamino]-3-hydroxy-propionamide] | > 50 µM
4 | O=C(N[C@@H]1CCN(C(=O)c2nc3c(C(F)(F)F)cc(-c4ccoc4)cn3c2Cl)C1)OCCCl (stereo in doubt) [Compound 321, [1-(3-Chloro-6-furan-3-yl-8-trifluoromethyl-imidazo[1,2-a]pyridine-2-carbonyl)-pyrrolidin-3-yl]-carbamic acid 2-chloro-ethyl ester] | > 50 µM
5 | O=C(O)c1nc2c(C(F)(F)F)cc(-c3ccoc3)cn2c1Cl [Compound 101, 3-Chloro-6-furan-3-yl-8-trifluoromethyl-imidazo[1,2-a]pyridine-2-carboxylic acid] | 7.01 µM
6 | O=C(c1nc2c(C(F)(F)F)cc(-c3ccoc3)cn2c1Cl)N1CCC(c2ccccc2F)C(O)C1 (stereo not drawn) [Compound 102, (3-Chloro-6-furan-3-yl-8-trifluoromethyl-imidazo[1,2-a]pyridin-2-yl)-[4-(2-fluoro-phenyl)-3-hydroxy-piperidin-1-yl]-methanone] | 0.0469 µM
7 | O=C(c1nc2c(C(F)(F)F)cc(-c3cn[nH]c3)cn2c1Cl)N1CC=C(c2ccccc2F)C1 [Compound 103, [3-Chloro-6-(1H-pyrazol-4-yl)-8-trifluoromethyl-imidazo[1,2-a]pyridin-2-yl]-[3-(2-fluoro-phenyl)-2,5-dihydro-pyrrol-1-yl]-methanone] | 0.0389 µM
8 | O=C(c1nc2c(C(F)(F)F)cc(-c3cn[nH]c3)cn2c1Cl)N1CC=C(c2c[nH]cn2)C1 [Compound 104, [3-Chloro-6-(1H-pyrazol-4-yl)-8-trifluoromethyl-imidazo[1,2-a]pyridin-2-yl]-[3-(1H-imidazol-4-yl)-2,5-dihydro-pyrrol-1-yl]-methanone] | 5.96 µM
9 | O=C(c1nc2c(C(F)(F)F)cc(-c3cn[nH]c3)cn2c1Cl)N1CC=C(c2cncs2)C1 [Compound 105, [3-Chloro-6-(1H-pyrazol-4-yl)-8-trifluoromethyl-imidazo [1,2-a]pyridin-2-yl]-(3-thiazol-5-yl-2,5-dihydro-pyrrol-1-yl)-methanone] | 0.13 µM
10 | O=C(c1nc2c(C(F)(F)F)cc(-c3ccoc3)cn2c1Cl)N1CC=C(c2cncs2)C1 [Compound 106, (3-Chloro-6-furan-3-yl-8-trifluoromethyl-imidazo[1,2-a]pyridin-2-yl)-(3-thiazol-5-yl-2,5-dihydro-pyrrol-1-yl)-methanone] | 0.0886 µM
11 | O=C(c1nc2c(C(F)(F)F)cc(-c3cn[nH]c3)cn2c1Cl)N1CC=C(c2cnsc2)C1 [Compound 107, [3-Chloro-6-(1H-pyrazol-4-yl)-8-trifluoromethyl-imidazo [1,2-a]pyridin-2-yl]-(3-isothiazol-4-yl-2,5-dihydro-pyrrol-1-yl)-methanone] | 0.241 µM
12 | CS(=O)(=O)N1CCN(C(=O)c2nc3c(C(F)(F)F)cc(-c4ccoc4)cn3c2Cl)CC1 [Compound 108, (3-Chloro-6-furan-3-yl-8-trifluoromethyl-imidazo[1,2-a]pyridin-2-yl)-(4-methanesulfonyl-piperazin-1-yl)-methanone] | 24.1 µM
13 | O=C(Cc1cn2cc(-c3ccoc3)cc(C(F)(F)F)c2n1)N1CCN(c2nccs2)CC1 [Compound 109, 2-(6-Furan-3-yl-8-trifluoromethyl-imidazo[1,2-a]pyridin-2-yl)-1-(4-thiazol-2-yl-piperazin-1-yl)-ethanone] | > 50 µM
14 | O=C(Cc1cn2cc(-c3ccoc3)cc(C(F)(F)F)c2n1)N1CCCCC1c1ccccc1 (stereo not drawn) [Compound 110, 2-(6-Furan-3-yl-8-trifluoromethyl-imidazo[1,2-a]pyridin-2-yl)-1-(2-phenyl-piperidin-1-yl)-ethanone] | 49 µM
15 | O=C(c1nc2c(C(F)(F)F)cc(-c3ccoc3)cn2c1Cl)N1CC=C(c2ncc[nH]2)CC1 [Compound 111, (3-Chloro-6-furan-3-yl-8-trifluoromethyl-imidazo[1,2-a]pyridin-2-yl)-[4-(1H-imidazol-2-yl)-3,6-dihydro-2H-pyridin-1-yl]-methanone] | > 50 µM
16 | O=C(c1nc2c(C(F)(F)F)cc(-c3cn[nH]c3)cn2c1Cl)N1CC=C(c2cn[nH]c2)CC1 [Compound 112, [3-Chloro-6-(1H-pyrazol-4-yl)-8-trifluoromethyl-imidazo[1,2-a]pyridin-2-yl]-[4-(1H-pyrazol-4-yl)-3,6-dihydro-2H-pyridin-1-yl]-methanone] | 0.368 µM
17 | O=C(Cc1cn2cc(-c3ccoc3)cc(C(F)(F)F)c2n1)N1Cc2ccccc2C1 [Compound 113, 1-(1,3-Dihydro-isoindol-2-yl)-2-(6-furan-3-yl-8-trifluoromethyl-imidazo[1,2-a]pyridin-2-yl)-ethanone] | 8.63 µM
18 | O=C(c1nc2c(C(F)(F)F)cc(-c3ccoc3)cn2c1Cl)N1CCC(N2CCCCC2=O)CC1 [Compound 114, 1′-(3-Chloro-6-furan-3-yl-8-trifluoromethyl-imidazo[1,2-a]pyridine-2-carbonyl)-[1,4′]bipiperidinyl-2-one] | 1.33 µM
19 | CCOc1cccnc1C1=CCN(C(=O)c2nc3c(C(F)(F)F)cc(-c4ccoc4)cn3c2Cl)CC1 [Compound 115, (3-Chloro-6-furan-3-yl-8-trifluoromethyl-imidazo[1,2-a]pyridin-2-yl)-(3-ethoxy-3′,6′-dihydro-2′H-[2,4′]bipyridinyl-1′-yl)-methanone] | 22.5 µM
20 | O=C(c1cc2c(C(F)(F)F)cc(-c3cccs3)nc2[nH]1)N1CC=C(c2ncccc2F)CC1 [Compound 116, (3-Fluoro-3′,6′-dihydro-2′H-[2,4′]bipyridinyl-1′-yl)-(6-thiophen-2-yl-4-trifluoromethyl-1H-pyrrolo[2,3-b]pyridin-2-yl)-methanone] | 24.4 µM
21 | O=C(c1cc2nc(-c3cccs3)cc(C(F)(F)F)c2[nH]1)N1CC=C(c2ncccc2F)CC1 [Compound 117, (3-Fluoro-3′,6′-dihydro-2′H-[2,4′]bipyridinyl-1′-yl)-(5-thiophen-2-yl-7-trifluoromethyl-1H-pyrrolo[3,2-b]pyridin-2-yl)-methanone] | 23.9 µM
22 | O=C(c1nc2c(C(F)(F)F)cc(-c3nccs3)cn2c1Cl)N1CC=C(c2ncccc2F)CC1 [Compound 118, (3 -Chloro-6-thiazol-2-yl-8-trifluoromethyl-imidazo[1,2-a]pyridin-2-yl)-(3-fluoro-3′,6′-dihydro-2′H-[2,4′]bipyridinyl-1′-yl)-methanone] | 0.655 µM
23 | O=C(c1nc2c(C(F)(F)F)cc(-c3cncs3)cn2c1Cl)N1CC=C(c2ncccc2F)CC1 [Compound 119, (3-Chloro-6-thiazol-5-yl-8-trifluoromethyl-imidazo[1,2-a]pyridin-2-yl)-(3-fluoro-3′,6′-dihydro-2′H-[2,4′]bipyridinyl-1′-yl)-methanone] | 0.354 µM
24 | O=C(c1nc2c(C(F)(F)F)cc(-c3cscn3)cn2c1Cl)N1CC=C(c2ncccc2F)CC1 [Compound 120, (3-Chloro-6-thiazol-4-yl-8-trifluoromethyl-imidazo[1,2-a]pyridin-2-yl)-(3-fluoro-3′,6′-dihydro-2′H-[2,4′]bipyridinyl-1′-yl)-methanone] | 3.04 µM
25 | O=C(c1nc2c(C(F)(F)F)cc(C3=CCNC3)cn2c1Cl)N1CC=C(c2ncccc2F)CC1 [Compound 121, [3-Chloro-6-(2,5-dihydro-1H-pyrrol-3-yl)-8-trifluoromethyl-imidazo[1,2-a]pyridin-2-yl]-(3-fluoro-3′,6′-dihydro-2′H-[2,4′]bipyridinyl-1′-yl)-methanone] | 2.54 µM
26 | O=C(c1nc2c(C(F)(F)F)cc(-c3c[nH]cn3)cn2c1Cl)N1CC=C(c2ncccc2F)CC1 [Compound 122, [3-Chloro-6-(1H-imidazol-4-yl)-8-trifluoromethyl-imidazo[1,2-a]pyridin-2-yl]-(3-fluoro-3′,6′-dihydro-2′H-[2,4′]bipyridinyl-1′-yl)-methanone] | 5.89 µM
27 | O=C(c1nc2c(C(F)(F)F)cc(-c3cccs3)cn2c1Cl)N1CC=C(c2ncccc2F)CC1 [Compound 123, (3-Chloro-6-thiophen-2-yl-8-trifluoromethyl-imidazo[1,2-a]pyridin-2-yl)-(3-fluoro-3′,6′-dihydro-2′H-[2,4′]bipyridinyl-1′-yl)-methanone] | 0.147 µM
